Measured values as given in patent publication US20080293683A1, “Hormone Replacement Therapy” (University of Kansas Medical Center, priority 2007, published 2008).
Like-named read-outs stand apart in the source and are kept apart here. Values belong to the compound of their own block, whether it stands above or below them.

Assays:
recombinant human ERα = target: T1, recombinant human ERα (Homo sapiens, UniProt P03372); assay: ERα binding assay: competition of [3H]E2 binding by competing estrogens; conditions: for RBAα % (relative binding affinity for ERα, of E2): calculated against E2 = 100; for RBAα/RBAβ: ratio of relative binding affinities ERα over ERβ
T1 construct: purchased PanVera Corporation (Madison, Wis.); host or cells: baculovirus-mediated expression system
T1 sequence (P03372 1-595): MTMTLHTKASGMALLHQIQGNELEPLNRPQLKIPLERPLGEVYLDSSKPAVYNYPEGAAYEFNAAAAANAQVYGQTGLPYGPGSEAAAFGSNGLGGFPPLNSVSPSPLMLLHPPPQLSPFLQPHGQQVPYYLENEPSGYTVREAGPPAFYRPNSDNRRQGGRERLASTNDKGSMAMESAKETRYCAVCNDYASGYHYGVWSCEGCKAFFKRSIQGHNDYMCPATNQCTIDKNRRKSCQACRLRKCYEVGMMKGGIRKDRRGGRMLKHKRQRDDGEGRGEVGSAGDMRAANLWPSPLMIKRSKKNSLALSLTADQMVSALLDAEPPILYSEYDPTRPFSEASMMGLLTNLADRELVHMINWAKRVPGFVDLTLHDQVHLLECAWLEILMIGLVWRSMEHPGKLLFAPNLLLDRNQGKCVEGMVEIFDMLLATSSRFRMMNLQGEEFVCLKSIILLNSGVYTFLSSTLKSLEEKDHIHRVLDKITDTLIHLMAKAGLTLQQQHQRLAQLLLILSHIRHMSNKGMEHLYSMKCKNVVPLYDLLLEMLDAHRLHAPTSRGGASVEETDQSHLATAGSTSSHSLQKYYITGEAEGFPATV
Source text: (§1) The recombinant human ERα and ERβ proteins and bovine serum albumin (BSA) were obtained from PanVera Corporation (Madison, Wis.). According to the supplier, the recombinant human ERα and ERβ were produced in a baculovirus-mediated expression system, and they were soluble and functionally active, with post-translational modifications similar to those found in mammalian cells. See Reid et al., Human estrogen receptor-α: Regulation by synthesis, modification and degradation, Cell. Mol. Life.
(§2) The following buffer solutions were used in the ER binding assays, and they were prepared beforehand and stored at 4° C. The binding buffer consisted of 10% glycerol, 2 mM dithiothreitol, 1 mg/mL BSA and 10 mM Tris-HCl at pH 7.5. The ERα washing buffer contained 40 mM Tris-HCl and 100 mM KCl (pH 7.4), but the ERG washing buffer contained only 40 mM Tris-HCl (adjusted to pH 7.4). The 50% hydroxylapatite slurry was prepared first by vigorously mixing 10 g hydroxylapatite with 60 mL of the Tris-HCl solution (50 mM, pH 7.4). Hydroxylapatite was then allowed to settle for 20 minutes at room temperature, and the supernatant was decanted. The above procedures were repeated 10 times, and afterwards hydroxylapatite was kept in the 50 mM Tris-HCl solution overnight at 4° C. Hydroxylapatite slurry was then adjusted to an approximate final concentration of 50% (v/v) using the same Tris-HCl solution and stored at 4° C., and the slurry was stable for up to several months.
(§3) Note that all of the estrogens were initially dissolved in pure ethanol to a stock concentration of 1 mM, and then further diluted to 100 μM with 20% aqueous ethanol. […] Immediately before the addition of the ERα or ERβ protein, it was diluted in the binding buffer and mixed gently with repetitive pipettings. […] The incubation mixture was then mixed gently and thoroughly with repetitive pipettings. […] The binding mixture was incubated at room temperature for two hours. At the end of the incubation, 100 μL of the hydroxylapatite slurry was added to each tube and the tubes were incubated on ice for 15 minutes with 3 times of brief vortexing. An aliquot (1 mL) of the appropriate washing buffer was added, mixed, and centrifuged at 10,000 g for five minutes, and the supernatants were discarded. This wash step was repeated twice. Hydroxylapatite pellets were then resuspended in 200 μL ethanol (followed by another rinse with 200 μL ethanol), and then the content was transferred to scintillation vials (containing 4 mL of the scintillation fluid) for measurement of ^3H-radioactivity with a liquid scintillation counter (Packard Tri-CARB 2900 TR; Downers Grove, Ill.).
(§4) To calculate the specific binding (pmol/mL) of the human ERα or ERβ protein at each concentration point, the following equation was used: […]
(§5) When a lower radioligand concentration is used, the corresponding IC50 value will also be relatively lower, but when the radioligand concentration increases, the corresponding IC50 value will also increase. […] Since the RBA value is a parameter that is independent of the radioligand concentration used, we thus have placed more emphasis on the RBA values instead of the absolute IC50 values in interpreting the physiological meanings of the data from in vitro receptor competition assays.

recombinant human ERβ = target: T2, recombinant human ERβ (Homo sapiens, UniProt Q92731); assay: ERβ binding assay: competition of [3H]E2 binding by competing estrogens; conditions: for RBAβ (%) (relative binding affinity for ERβ, of E2): calculated against E2 = 100; for binding affinity for ERβ (in words): concentrations up to 1000 nM
T2 construct: purchased PanVera Corporation (Madison, Wis.); host or cells: baculovirus-mediated expression system
T2 sequence (Q92731 whole entry): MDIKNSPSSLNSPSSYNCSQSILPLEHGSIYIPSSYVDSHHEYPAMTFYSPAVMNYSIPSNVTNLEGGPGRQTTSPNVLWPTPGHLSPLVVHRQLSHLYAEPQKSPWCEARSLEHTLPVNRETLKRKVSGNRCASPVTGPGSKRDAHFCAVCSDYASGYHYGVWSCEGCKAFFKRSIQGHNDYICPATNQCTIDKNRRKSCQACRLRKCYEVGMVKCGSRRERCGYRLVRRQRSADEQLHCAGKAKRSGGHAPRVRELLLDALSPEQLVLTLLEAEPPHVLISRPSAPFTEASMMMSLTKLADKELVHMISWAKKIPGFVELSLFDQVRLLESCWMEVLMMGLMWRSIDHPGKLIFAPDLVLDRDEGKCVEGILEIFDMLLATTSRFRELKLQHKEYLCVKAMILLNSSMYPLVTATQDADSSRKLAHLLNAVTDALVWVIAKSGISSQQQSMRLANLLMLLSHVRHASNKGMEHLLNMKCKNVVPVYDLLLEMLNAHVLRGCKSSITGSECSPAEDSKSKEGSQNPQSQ
Source text: as §1, §2, §3, §4, §5

[1] = [3H]E2 10 nM, competitor up to 1000 nM, read-out: ERβ IC50

SMILES: CC12CCC3c4cc(O)c(O)cc4CCC3C1CCC2=O (stereo not drawn) [2-OH-E1, 2-Hydroxyestrone]
- preference of binding affinity for ERα over ERβ (recombinant human ERα; ERα over ERβ): about ten-fold
- RBAα % (relative binding affinity for ERα, of E2) (recombinant human ERα): 4%
- RBAα/RBAβ (recombinant human ERα): 10
- RBAα/RBAβ (recombinant human ERα; listed as 2-hydroxyestrone): about 10
- IC50 (recombinant human ERα; read-out: ERα IC50): 316 nM
- RBAβ (%) (relative binding affinity for ERβ, of E2) (recombinant human ERβ): 0.4%
- IC50 (recombinant human ERβ; read-out: ERβ IC50): 2000 nM

SMILES: C[C@]12CC[C@@H]3c4cc(O)c(O)cc4CC[C@H]3[C@@H]1CC[C@@H]2O [2-OH-E2, 2-Hydroxyestradiol]
- IC50 (recombinant human ERα): 50.1 nM
- RBAα % (relative binding affinity for ERα, of E2) (recombinant human ERα): 22%
- RBAα/RBAβ (recombinant human ERα): 0.6
- IC50 (recombinant human ERβ): 25.1 nM
- RBAβ (%) (relative binding affinity for ERβ, of E2) (recombinant human ERβ): 35%

SMILES: CC(=O)OC1C[C@]2(C)[C@@H](O)CC[C@H]2[C@@H]2CCc3cc(O)ccc3[C@@H]12 (stereo partly drawn) [11-Acetate-E2, 17β-Estradiol 11-acetate]
- IC50 (recombinant human ERβ; [1]): 19.9 nM

- preference of binding affinity for ERβ over ERα (recombinant human ERβ; listed as E3): more than five-fold
- IC50 (recombinant human ERβ; read-out: ERβ IC50): 25.1 nM
SMILES: C[C@]12CC[C@@H]3c4ccc(O)cc4CC[C@H]3[C@@H]1C[C@@H](O)[C@@H]2O [16α-OH-E2 (E3), 16α-Hydroxyestradiol (Estriol), reference compound]

- IC50 (recombinant human ERβ; read-out: ERβ IC50): 11.2 nM
- binding affinity for ERβ, times higher than E2-17α (recombinant human ERβ; relative to E2-17α): 16 times
SMILES: C[C@]12CC[C@@H]3c4ccc(O)cc4CC[C@H]3[C@@H]1C[C@@H](O)[C@H]2O [16α-OH-E2-17α, 16α-Hydroxyestradiol-17α (16,17-Epiestriol)]

- preference of binding affinity for ERβ over ERα (recombinant human ERβ): 18 fold
- IC50 (recombinant human ERβ; read-out: ERβ IC50): 70.8 nM
SMILES: C[C@]12CC[C@@H]3c4ccc(O)cc4CC[C@H]3[C@@H]1C[C@H](O)[C@H]2O [16β-OH-E2-17α, 16β-Hydroxyestradiol-17α (16,17-Epiestriol)]

- binding affinity for ERβ (in words) (recombinant human ERβ): only about half of that of E2
SMILES: C#CC1(O)CCC2C3CCc4cc(O)ccc4C3CCC21C (stereo not drawn) [17α-EE2, 17α-Ethynylestradiol, reference compound]

SMILES: C[C@]12CCc3c(ccc4cc(O)ccc34)[C@@H]1CC[C@@H]2O [17β-Dihydroequilenin]
- IC50 (recombinant human ERβ; [1]): 8.9 nM

SMILES: O=C(CC(=O)c1ccccc1)c1ccccc1 [DBM, Dibenzoylmethane, reference compound]
- IC50 (recombinant human ERβ): > 1000 nM
- binding affinity for ERβ (in words) (recombinant human ERβ): weak overall binding affinity

- IC50 (recombinant human ERβ; read-out: ERβ IC50): > 1000 nM
SMILES: C[C@]12CC[C@@H]3c4ccc(OS(=O)(=O)O)cc4CC[C@H]3[C@@H]1CCC2=O [E1-3-sulfate, Estrone 3-sulfate]
- binding affinity for ERβ (in words) (recombinant human ERβ): basically devoid of appreciable binding affinity
- binding affinity for ERβ (in words) (recombinant human ERβ; listed as estrone-3-sulfate): virtually no estrogen receptor binding affinity

SMILES: C[C@]12CC[C@@H]3c4ccc(O)cc4C[C@@H](CCCCCCOCc4ccccc4)[C@H]3[C@@H]1CC[C@@H]2O [E2-7α-(CH2)6OC6H5, 7α-(6-Benzyloxyhexanyl)-17β-estradiol]
- IC50 (recombinant human ERβ; [1]): 63.1 nM
